The test system of one assay is Mtb CDC1551. In words: Extracellular Mtb growth on cholesterol, MABA MIC99. The class given is cell-based, Mycobacterium tuberculosis. The settings on record: Mycobacterium tuberculosis, CDC1551, 336 h; cholesterol as sole carbon source; 2 weeks post-compound treatment; read-out: MABA-MIC99 (W2) CDC1551, cholesterol.
Assay [1] has as its system Mtb H37Rv pATB45luc in THP-1 macrophages. In words: microbe, parasite or virus in culture. It is filed as cell-based. The note with it: Mycobacterium tuberculosis, 120 h, 5 days post-compound treatment, mean ± SD n = 2, read-out: intracellular growth Mtb IC50.
For assay [2], the system named is MDR-TB strain K26b00MR 113. In words: microbe, parasite or virus in culture. It is filed as cell-based, Mycobacterium tuberculosis. The settings on record: Mycobacterium tuberculosis, K26b00MR 113.

The results in this text go back to publication PMC12305662, “Fragment-Based Development of Small Molecule Inhibitors Targeting Mycobacterium tuberculosis Cholesterol Metabolism” (Journal of Medicinal Chemistry, 2025).

Converted amounts (≈) assume the structure as drawn. Like-named read-outs stand apart in the source and are kept apart here.

Regarding `COc1ccc(CNc2ccc(Cc3ccncc3)cc2)cc1` [5m, N-(4-Methoxybenzyl)-4-(pyridin-4-ylmethyl)aniline], the MIC99 in the assay on Mtb CDC1551 worked out at 13 µM (≈ 3.96 µg/mL). The IC50 in assay [1] came out at 1700 ± 180 nM. Also, the MIC90 in assay [2] (168 h, read-out: MIC90 (W1) MDR-TB, MABA 1 week post-compound treatment) amounted to 0.39 µM (≈ 0.119 µg/mL); in assay [2] (336 h, read-out: MIC90 (W2) MDR-TB, MABA 2 weeks post-compound treatment), 12.5 µM (≈ 3.8 µg/mL).
